Format in all cases: in vivo
The subject of assay [1] is giant foxtail (Setaria faberii). The assay can be described thus: Test A preemergence. The settings on record: Setaria faberi, pre-emergence, 240 h, preemergence, read-out: Plant response rating, Foxtail, Giant; for pest or weed control at 125 g/ha: 125 g ai/ha, visual rating after approx. 10 d, 0 to 100 scale where 0 is no effect and 100 is complete control; for pest or weed control at 500 g/ha: 500 g ai/ha, 0 to 100 scale, 0 = no effect, 100 = complete control. The method in brief: (§1)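 Seeded soil received test chemicals as a preemergence directed spray, and seedlings at one to two leaves, 2–10 cm tall, received them postemergence, in a non-phytotoxic, surfactant-containing solvent mixture. Pots were held in a greenhouse for approximately 10 d, then rated for injury from 0, no effect, to 100, complete control.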

The test system of assay [2] is ragweed (common ragweed, Ambrosia elatior). In words: Test A preemergence. The settings on record: Ambrosia artemisiifolia, pre-emergence, 240 h, preemergence, read-out: Plant response rating, Ragweed; for pest or weed control at 125 g/ha: 125 g ai/ha, visual rating after approx. 10 d, 0 to 100 scale where 0 is no effect and 100 is complete control; for pest or weed control at 500 g/ha: 500 g ai/ha, 0 to 100 scale, 0 = no effect, 100 = complete control. An outline of the steps:
as §1

The test system of assay [3] is barnyardgrass (Echinochloa crus-galli). The assay can be described thus: Test A preemergence. As to conditions: Echinochloa crus-galli, pre-emergence, 240 h, preemergence, read-out: Plant response rating, Barnyardgrass; for pest or weed control at 125 g/ha: 125 g ai/ha, visual rating after approx. 10 d, 0 to 100 scale where 0 is no effect and 100 is complete control; for pest or weed control at 500 g/ha: 500 g ai/ha, 0 to 100 scale, 0 = no effect, 100 = complete control. The method in brief:
as §1

For assay [4], the system named is ryegrass, Italian (Italian ryegrass, Lolium multiflorum). The assay can be described thus: Test A preemergence. As to conditions: Lolium multiflorum, pre-emergence, 240 h, preemergence, read-out: Plant response rating, Ryegrass, Italian; for pest or weed control at 125 g/ha: 125 g ai/ha, visual rating after approx. 10 d, 0 to 100 scale where 0 is no effect and 100 is complete control; for pest or weed control at 500 g/ha: 500 g ai/ha, 0 to 100 scale, 0 = no effect, 100 = complete control. The method in brief: as §1

The subject of assay [5] is pigweed (Amaranthus retroflexus). The assay can be described thus: Test A preemergence. The settings on record: Amaranthus retroflexus, pre-emergence, 240 h, preemergence, read-out: Plant response rating, Pigweed; for pest or weed control at 125 g/ha: 125 g ai/ha, visual rating after approx. 10 d, 0 to 100 scale where 0 is no effect and 100 is complete control; for pest or weed control at 500 g/ha: 500 g ai/ha, 0 to 100 scale, 0 = no effect, 100 = complete control.

The subject of assay [6] is Kochia (Kochia scoparia). The assay can be described thus: Test A preemergence. As to conditions: Bassia scoparia, pre-emergence, 240 h, preemergence, read-out: Plant response rating, Kochia; for pest or weed control at 125 g/ha: 125 g ai/ha, visual rating after approx. 10 d, 0 to 100 scale where 0 is no effect and 100 is complete control; for pest or weed control at 500 g/ha: 500 g ai/ha, 0 to 100 scale, 0 = no effect, 100 = complete control. The method in brief:
as §1

Assay [7] relates to giant foxtail (Setaria faberii). In words: Test A postemergence. The settings on record: Setaria faberi, post-emergence, 240 h, 125 g ai/ha, postemergence; visual injury after approximately 10 d; 0 to 100 scale (0 no effect, 100 complete control); read-out: Plant response rating, Foxtail, Giant. An outline of the steps: as §1
Assay [8] deals with wheat (Triticum aestivum). The assay can be described thus: Test A postemergence. The settings on record: Triticum aestivum, post-emergence, 240 h, 125 g ai/ha, postemergence; visual injury after approximately 10 d; 0 to 100 scale (0 no effect, 100 complete control); read-out: Plant response rating, Wheat. The method in brief:
as §1

The subject of assay [9] is ragweed (common ragweed, Ambrosia elatior). In words: Test A postemergence. As to conditions: Ambrosia artemisiifolia, post-emergence, 240 h, 125 g ai/ha, postemergence; visual injury after approximately 10 d; 0 to 100 scale (0 no effect, 100 complete control); read-out: Plant response rating, Ragweed. The method in brief:
as §1

For assay [10], the system named is barnyardgrass (Echinochloa crus-galli). The assay can be described thus: Test A postemergence. The settings on record: Echinochloa crus-galli, post-emergence, 240 h, 125 g ai/ha, postemergence; visual injury after approximately 10 d; 0 to 100 scale (0 no effect, 100 complete control); read-out: Plant response rating, Barnyardgrass. An outline of the steps: as §1

For assay [11], the system named is Galium (catchweed bedstraw, Galium aparine). In words: Test A postemergence. As to conditions: Galium, post-emergence, 240 h, 125 g ai/ha, postemergence; visual injury after approximately 10 d; 0 to 100 scale (0 no effect, 100 complete control); read-out: Plant response rating, Galium. The method in brief: as §1
Assay [12] deals with ryegrass, Italian (Italian ryegrass, Lolium multiflorum). The assay can be described thus: Test A postemergence. The settings on record: Lolium multiflorum, post-emergence, 240 h, 125 g ai/ha, postemergence; visual injury after approximately 10 d; 0 to 100 scale (0 no effect, 100 complete control); read-out: Plant response rating, Ryegrass, Italian. The method in brief: as §1

Assay [13] has as its system pigweed (Amaranthus retroflexus). The assay can be described thus: Test A postemergence. The settings on record: Amaranthus retroflexus, post-emergence, 240 h, 125 g ai/ha, postemergence; visual injury after approximately 10 d; 0 to 100 scale (0 no effect, 100 complete control); read-out: Plant response rating, Pigweed. An outline of the steps:
as §1

The subject of assay [14] is Kochia (Kochia scoparia). In words: Test A postemergence. The settings on record: Bassia scoparia, post-emergence, 240 h, 125 g ai/ha, postemergence; visual injury after approximately 10 d; 0 to 100 scale (0 no effect, 100 complete control); read-out: Plant response rating, Kochia. An outline of the steps:
as §1

The next assay deals with corn (Zea mays). The assay can be described thus: Test A postemergence. As to conditions: Zea mays, post-emergence, 240 h, 125 g ai/ha, postemergence; visual injury after approximately 10 d; 0 to 100 scale (0 no effect, 100 complete control). The method in brief: as §1

Among the data in patent US12077503B2, “Substituted cyclic amides and their use as herbicides” (FMC CORPORATION, priority 2015, dated 2024) are pest or weed control, plant injury and Corn plant response rating (crop injury, 0 = no effect, 100 = complete kill) values, retold here.

As to `CN1C[C@H](c2cc(F)cc(F)c2)[C@@H](C(=O)Nc2ccccc2S(C)(=O)=O)C1=O` [Compound 739], the pest or weed control at 125 g/ha in [1] was 90%; in [2] it was 50%; in [3] it was 90%; in [4] it was 0%; in assay [5], 0%; in the assay on Kochia (Kochia scoparia) [6] it was 30%. Besides, the pest or weed control at 125 g/ha in assay [7] is 90%; in assay [9] it was 30%; in assay [10] it was 90%; in [11], 50%; in assay [12], 20%; in assay [13], 20%. Moreover, the pest or weed control at 125 g/ha in the assay on Kochia (Kochia scoparia) [14] worked out at 30%. Further, the pest or weed control at 500 g/ha was determined as 100% in assay [1]; 80% in assay [2]; 100% in [3]; 30% in assay [4]; 30% in assay [5]; 80% in the assay on Kochia (Kochia scoparia) [6]. Further, in [8], the plant injury at 125 g/ha amounted to 0%. The molecule further returned a Corn plant response rating (crop injury, 0 = no effect, 100 = complete kill) at 125 g/ha with corn (Zea mays) of 20%.

`Cc1ccc([C@H]2CNC(=O)[C@@H]2C(=O)Nc2cccc(F)c2F)c(F)c1` [Compound 720]: the pest or weed control at 125 g/ha was 60% in [1]; 0% in assay [2]; 90% in assay [3]; 0% in assay [4]; 0% in assay [5]; 20% in the assay with Kochia (Kochia scoparia) [6]. The pest or weed control at 125 g/ha in assay [7] was 20%; in assay [9] it was 0%; in assay [10], 90%; in assay [11], 50%; in assay [12] it was 0%; in assay [13], 0%. The pest or weed control at 125 g/ha in the assay with Kochia (Kochia scoparia) [14] was found to be 50%. Also, the pest or weed control at 500 g/ha in assay [1] amounted to 90%; in [2], 80%; in [3], 100%; in [4], 20%; in assay [5], 0%; in the assay with Kochia (Kochia scoparia) [6], 70%. In addition, the plant injury at 125 g/ha in assay [8] is 0%. In the assay on corn (Zea mays), this molecule returned a Corn plant response rating (crop injury, 0 = no effect, 100 = complete kill) at 125 g/ha of 0%.
